# Assay results: patent publication US8084621B2, “3-Pyrrolo[b]cyclohexylene-2-dihydroindolinone derivatives and uses thereof” (Jiangsu Simcere Pharmaceutical R&D Co. Ltd., priority 2006, dated 2011)
# Molecular target: T1, PDGFR-β (Homo sapiens, UniProt P09619)
# T1 construct: purchased Cell Signaling Technology CO
# Experiment: Protein kinase activity by ELISA in vitro, PDGFR-β
# Assay type: biochemical
# Conditions: concentration of 10^−7 mol/L; read-out: kinase inhibition ratio, PDGFR-β
# Text: An ELISA (Enzyme-Linked Immunosorbent Sandwich Assay) procedure may be used to detect and measure the level of protein tyrosine kinase activity. Tyrosine kinases such as VEGFR-2, PDGFR-β and c-Kit etc. catalyze the phosphorylation reaction of ATP and biotin-labeled peptide substrate, which will be ceased when the kinase activity is inhibited. According to the principle of ELISA, a monoclonal antibody can react with phosphorylated substrate specially, so biotin-labeled substrate is binded to streptavidin-coated ELISA plate, and then binded to a HRP-labeled goat anti-mouse antibody. Finally TMB is added for a color reaction and the value of A450-A630 is read by ELISA plate reader. The OD value can reflect the inhibitory activity of the VEGFR-2, PDGFR-β, c-Kit tyrosine kinases etc. treated with the test compounds at the different concentrations. So, the assay may be used to measure the inhibition ratio of the compounds for the tyrosine kinase activity. Similar assays can be designed along the same lines for any PK using techniques well known in the art. Tyrosine kinases such as VEGFR-2, PDGFR-β and c-Kit etc. catalyze the phosphorylation reaction of ATP and biotin-labeled peptide substrate, which will be ceased when the kinase activity is inhibited. According to the principle of ELISA, a monoclonal antibody can react with phosphorylated substrate specially, so biotin-labeled substrate is binded to streptavidin-coated ELISA plate, and then binded to a HRP-labeled goat anti-mouse antibody. Finally TMB is added for a color reaction and the value of A450-A630 is read by ELISA plate reader. The OD value can reflect the inhibitory activity of the VEGFR-2, PDGFR-β c-Kit tyrosine kinases treated with the test compounds at the different concentrations. So, the assay may be used to measure the inhibition ratio of the compounds for the tyrosine kinase activity. Similar assays can be designed along the same lines for any PK using techniques well known in the art. VEGF Receptor 2, PDGF Receptor-beta and c-kit kinase assay kit (include kinase, 1.25M DTT, substrate peptide, 10 mM ATP, P-[…] Mouse antibody, 4×HTScan tyrosine kinase buffer), Cell Signaling Technology CO.; HRP labeled goat anti mouse IgG, Protein Tech CO.; TMB, Pierce CO.; Streptavidin Microtitration Plate, Greiner Bio-one CO.; Infinite M200 Reader, Tecan CO. 1.2.1 Immediately transfer enzyme from -80° C. to ice. Allow enzyme to thaw on ice then at 4° C. and centrifugate transiently to the bottom of centrifuge tube, then lay back on ice quickly 1.2.2 Add 10 μl of DTT (1.25 M) to 2.5 ml of 4×HTScan tyrosine kinase buffer (240 mM HEPES pH 7.5, 20 mM MgCl2, 20 mM MnCl2, 12 μM Na3VO4). Transfer 0.6 ml of DTT/Kinase buffer to each enzyme tube to make 4× reaction Cocktail. Incubate 12.5 μl of the 4× reaction cocktail with 12.5 μl/well prediluted compound of interest for 5 minutes at room temperature, and set blank control, free-enzyme control, negative control and positive control. 1.2.3 Add 10 μl 10 mM ATP to 1.25 ml 6 μM substrate peptide. Dilute the mixture with dH20 to 2.5 ml to make 2×ATP/substrate cocktail. Add 25 μl of 2×ATP/substrate cocktail to 25 μl/well preincubated reaction cocktail/compound. Incubate reaction plate at room temperature for 30 minutes. 1.2.4 Add 50 μl/well stop Buffer (50 mM EDTA, pH 8) to stop the reaction. Transfer 25 μl of each reaction and 75 μl dH2O/well to a 96-well streptavidin coated plate and incubate at room temperature for 60 minutes. Wash three times with 200 μl/well PBS/T(1×PBS, 0.05% Tween-20). 1.2.5 Dilute primary antibody, Phospho-Tyrosine mAb (P-[…]), 1:500 in PBS/T with 1% BSA. Add 100 μl/well primary antibody. Incubate at room temperature for 60 minutes. Wash three times with 200 μl/well PBS/T(1×PBS, 0.05% Tween-20). 1.2.6 Prepare appropriate dilution of HRP labeled secondary antibody, 1:500 in PBS/T with 1% BSA. Add 100 μl/well secondary antibody solution. Incubate at room temperature for 30 minutes. […]
# T1 sequence (P09619 33-1106): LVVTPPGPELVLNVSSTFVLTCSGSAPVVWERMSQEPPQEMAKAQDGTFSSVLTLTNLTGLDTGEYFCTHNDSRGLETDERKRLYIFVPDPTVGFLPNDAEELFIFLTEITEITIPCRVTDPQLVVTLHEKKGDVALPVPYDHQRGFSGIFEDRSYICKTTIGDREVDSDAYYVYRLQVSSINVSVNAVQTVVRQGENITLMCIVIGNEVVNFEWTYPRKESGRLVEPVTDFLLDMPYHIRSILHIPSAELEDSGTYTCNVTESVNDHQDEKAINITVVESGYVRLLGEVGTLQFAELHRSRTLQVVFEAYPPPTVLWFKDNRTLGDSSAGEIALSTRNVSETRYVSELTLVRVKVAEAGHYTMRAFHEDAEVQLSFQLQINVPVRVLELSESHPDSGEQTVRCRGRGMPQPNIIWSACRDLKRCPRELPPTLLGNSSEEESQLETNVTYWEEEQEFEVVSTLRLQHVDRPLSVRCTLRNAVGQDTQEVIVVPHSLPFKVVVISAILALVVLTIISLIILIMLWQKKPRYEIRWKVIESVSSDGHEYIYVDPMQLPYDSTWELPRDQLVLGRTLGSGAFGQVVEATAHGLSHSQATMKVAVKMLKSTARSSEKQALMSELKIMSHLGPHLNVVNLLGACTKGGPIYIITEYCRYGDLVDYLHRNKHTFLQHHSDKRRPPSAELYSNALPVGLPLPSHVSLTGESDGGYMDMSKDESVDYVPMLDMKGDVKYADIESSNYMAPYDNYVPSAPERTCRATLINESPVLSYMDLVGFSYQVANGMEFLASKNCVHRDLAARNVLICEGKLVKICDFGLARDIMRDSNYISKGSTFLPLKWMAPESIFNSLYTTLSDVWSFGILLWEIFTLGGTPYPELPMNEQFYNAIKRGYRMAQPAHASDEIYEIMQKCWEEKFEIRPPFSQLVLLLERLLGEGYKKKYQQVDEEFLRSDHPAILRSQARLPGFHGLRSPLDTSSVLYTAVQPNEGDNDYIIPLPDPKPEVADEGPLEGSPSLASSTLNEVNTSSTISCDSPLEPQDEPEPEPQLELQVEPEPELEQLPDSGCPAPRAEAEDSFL
row,Compound,inhibition at 0.1 µM
1,"Cc1[nH]c2c(c1C(=O)NCCO)CCC/C2=C1/C(=O)Nc2ccccc21 [I-8, N-(2-hydroxyethyl)-2-methyl-7-[1,2-dihydro-2-oxo-3H-indol-(Z)-3-ylidene]-4,5,6,7-tetrahydro-1H-indole-3-carboxamide]",89%
2,"CCN(CC)CCNC(=O)c1c(C)[nH]c2c1CCC/C2=C1/C(=O)Nc2ccccc21 [I-5, N-(2-(diethylamino)ethyl)-2-methyl-7-[1,2-dihydro-2-oxo-3H-indol-(Z)-3-ylidene]-4,5,6,7-tetrahydro-1H-indole-3-carboxamide]",87%
3,"CCN(CC)CCNC(=O)c1c(C)[nH]c2c1CCC/C2=C1/C(=O)Nc2ccc(C)cc21 [I-4, N-(2-(diethylamino)ethyl)-2-methyl-7-[1,2-dihydro-5-methyl-2-oxo-3H-indol-(Z)-3-ylidene]-4,5,6,7-tetrahydro-1H-indole-3-carboxamide]",86%
4,"Cc1[nH]c2c(c1C(=O)NCC(O)CN1CCCC1)CCC/C2=C1/C(=O)Nc2ccccc21 (stereo not drawn) [I-70, N-(2-hydroxy-3-(pyrrolidin-1-yl)propyl)-2-methyl-7-[1,2-dihydro-2-oxo-3H-indol-(Z)-3-ylidene]-4,5,6,7-tetrahydro-1H-indole-3-carboxamide]",85%
5,"CCN(CC)CCNC(=O)c1c(C)[nH]c2c1CCC/C2=C1/C(=O)Nc2ccc(Cl)cc21 [I-3, N-(2-(diethylamino)ethyl)-2-methyl-7-[1,2-dihydro-5-chloro-2-oxo-3H-indol-(Z)-3-ylidene]-4,5,6,7-tetrahydro-1H-indole-3-carboxamide]",88%
6,"CCN(CC)CC(O)CNC(=O)c1c(C)[nH]c2c1CCC/C2=C1/C(=O)Nc2ccccc21 (stereo not drawn) [I-63, N-(3-(diethylamino)-2-hydroxypropyl)-2-methyl-7-[1,2-dihydro-2-oxo-3H-indol-(Z)-3-ylidene]-4,5,6,7-tetrahydro-1H-indole-3-carboxamide]",87%
7,"Cc1[nH]c2c(c1C(=O)NCCN(C)C)CCC/C2=C1/C(=O)Nc2ccc(F)cc21 [I-6, N-(2-(dimethylamino)ethyl)-2-methyl-7-[1,2-dihydro-5-fluoro-2-oxo-3H-indol-(Z)-3-ylidene]-4,5,6,7-tetrahydro-1H-indole-3-carboxamide]",85%
8,"CCN(CC)CCNC(=O)c1c(C)[nH]c2c1CCC/C2=C1/C(=O)Nc2ccc(F)cc21 [I-2, N-(2-(diethylamino)ethyl)-2-methyl-7-[1,2-dihydro-5-fluoro-2-oxo-3H-indol-(Z)-3-ylidene]-4,5,6,7-tetrahydro-1H-indole-3-carboxamide]",90%
9,"Cc1[nH]c2c(c1C(=O)NCCCN(C)C)CCC/C2=C1/C(=O)Nc2ccc(Cl)cc21 [I-7, N-(3-(dimethylamino)propyl)-2-methyl-7-[1,2-dihydro-5-chloro-2-oxo-3H-indol-(Z)-3-ylidene]-4,5,6,7-tetrahydro-1H-indole-3-carboxamide]",86%
